# Reference: patent US10676780B2, “Stabilisation and isolation of extracellular nucleic acids” (QIAGEN GmbH, priority 2011, dated 2020)
# Where a SMILES comes first, the peptide text is derived from it. The star is where a group is joined. Cbz = O=C(OCc1ccccc1)*; CH2Cl = ClC*; CH2F = FC*
# What was measured:
# anthrax lethal factor = anthrax lethal factor (Bacillus anthracis, UniProt P15917); details: cited from earlier work
# MCF7 breast cancer cells = details: at 20 μM; cited from earlier work
# mitochondrial division = details: cited from earlier work
# [1] = system: etoposide-induced cortical neuron death; details: cited from earlier work; for EC50: read-out: ED50 (the source's name)
# [2] = neuron culture medium at 37° C.; cited from earlier work
# [3] = administered in rats in vivo; cited from earlier work
# whole blood samples [4] = experiment: DNA size distribution by chip gel electrophoresis of DNA isolated from plasma of stored whole blood; type: cell-based; details: for genomic DNA release/fragmentation: day 7, RT; for ladder-like pattern of DNA bands (release/fragmentation of genomic DNA): 20 μM end concentration in 10 ml blood, stored at RT, day 3 and day 7, vs DMSO control and K2E blood
# Method: A test system was designed, wherein cell-containing biological samples, here whole blood samples, were incubated at room temperature (RT) for up to 6 or 7 days. Therein, the sample stabilizing properties of the additives of the present invention were tested on day 0, day 3 and day 6/7 the samples. The samples were processed according to the following protocols, where applicable (for details, see also the specific examples in the results section):
# To separate the blood plasma from the whole blood, the blood samples were centrifuged for 15 min at 5000 rpm, and the obtained plasma samples were again centrifuged for 10 min at 16.000×g at 4° C.
# (§1) The circulating, extracellular nucleic acids were purified from the obtained plasma samples using the QIAamp® Circulating NA Kit (according to the handbook). In brief: • 10 ml sample input; • lysis: 1 ml Proteinase K and 8 ml Buffer ACL (QIAGEN) • binding: 18 ml Buffer ACB (QIAGEN) • wash-steps: unchanged and according to handbook • elution in 60 μl Buffer AVE (QIAGEN) 4. Analysis of the Eluates
# 4.1. Measurement of the blood cell stability/DNA release by the determination of DNA size distribution using a chip gel electrophoresis (2100 Bioanalyzer; Agilent Technologies; Inc., USA) according to manufacturer's instruction (see handbook Agilent DNA 7500 and DNA 12000 Kit Guide), but 1.5 μl instead of 1 μl sample were transferred to the wells.
# The eluted circulating cell-free DNA was separated by size using chip gel electrophoresis (for details on the method see above, I, 4.1). […] The DMSO control and the K2E blood (not treated according to the teachings of the present invention) show the same ladder-like pattern of bands. This pattern occurs in samples where apoptosis takes place. During apoptosis, endonucleases degrade genomic DNA at inter-nucleosomal linker regions and produce DNA fragments of circa 180 bp or multiples of 180 bp. Thus, apoptosis occurs in samples which show a clear ladder-like pattern. Furthermore, the strength (darkness) of the pattern is decisive. The darker the bands, the more genomic DNA was released from the cells and thus contaminates the extracellular nucleic acid population.
# whole blood samples [5] = experiment: ribosomal 18S DNA duplex real time PCR: increase of DNA in plasma of stored whole blood; type: cell-based, human; details: for increase of genomic DNA in the plasma (18S DNA duplex assay) / x-fold increase of ribosomal 18S DNA in plasma: within 7 days of storage at RT; for x-fold increase of ribosomal 18S DNA in plasma: 20 μM in 10 ml blood
# Method: A test system was designed, wherein cell-containing biological samples, here whole blood samples, were incubated at room temperature (RT) for up to 6 or 7 days. Therein, the sample stabilizing properties of the additives of the present invention were tested on day 0, day 3 and day 6/7 the samples.
# as §1
# 4.2. DNA quantification with a real time PCR assay, sensitive for DNA degradation (target: 500 and 66 bp long ribosomal 18S DNA coding sequences).
# (samples were diluted 1:10 before amplification)
# Detection of ribosomal 18S DNA by quantitative real-time PCR, makes it possible to calculate the x-fold increase of DNA from day 0 to day 3 or 7 (calculation: division of day 3 (or 7) copies by day 0 copies).
# The division of short amplicon copy number by long amplicon copy number (66 by/500 bp) indicates whether the amount of detected short or long amplicons changes over time in a similar way. A decrease of this ratio implies a stronger release of longer rather than of shorter DNA molecules and can be interpreted as release of high molecular weight genomic DNA from blood cells.
# On day 0, day 3 and day 6, replicates were processed as follows. […] The collected plasma was centrifuged at 16,000×g for 10 minutes at 4° C. The cleared plasma fraction was collected and the extracellular nucleic acids were isolated using the QIAamp Circulating nucleic acid kit (1 ml input material, 60 μl elution volume). […] Values that are close to 1 imply preserved levels of ccfDNA. The higher the value, the less stabilization is achieved.
# caspase-8 = caspase-8 (Homo sapiens, UniProt Q14790); details: cited from earlier work
# Sequence of caspase-8 (Q14790 217-479, species assumed): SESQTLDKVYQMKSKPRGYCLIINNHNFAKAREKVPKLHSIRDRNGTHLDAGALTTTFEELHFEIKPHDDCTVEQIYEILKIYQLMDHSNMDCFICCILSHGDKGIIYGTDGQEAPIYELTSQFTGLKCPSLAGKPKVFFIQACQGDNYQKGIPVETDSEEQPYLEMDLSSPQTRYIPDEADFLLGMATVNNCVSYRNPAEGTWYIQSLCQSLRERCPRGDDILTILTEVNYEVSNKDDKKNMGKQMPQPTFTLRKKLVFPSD
# [6] = target: T1, human recombinant caspase-1 (Homo sapiens, UniProt P29466); details: cited from earlier work
# T1 sequence (P29466 120-404): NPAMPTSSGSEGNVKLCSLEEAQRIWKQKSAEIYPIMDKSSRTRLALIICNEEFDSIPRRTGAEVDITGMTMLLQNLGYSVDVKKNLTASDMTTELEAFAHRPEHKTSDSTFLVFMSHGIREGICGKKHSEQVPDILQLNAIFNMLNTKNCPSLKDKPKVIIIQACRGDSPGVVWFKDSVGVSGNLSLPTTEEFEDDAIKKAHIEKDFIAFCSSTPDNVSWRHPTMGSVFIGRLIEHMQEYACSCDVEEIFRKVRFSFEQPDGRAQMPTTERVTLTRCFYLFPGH
# fragmentin 2 = target: T2, fragmentin 2 (Rattus norvegicus, UniProt P18291); details: read-out: ID50 (the source's name); cited from earlier work
# T2 sequence (P18291 21-248): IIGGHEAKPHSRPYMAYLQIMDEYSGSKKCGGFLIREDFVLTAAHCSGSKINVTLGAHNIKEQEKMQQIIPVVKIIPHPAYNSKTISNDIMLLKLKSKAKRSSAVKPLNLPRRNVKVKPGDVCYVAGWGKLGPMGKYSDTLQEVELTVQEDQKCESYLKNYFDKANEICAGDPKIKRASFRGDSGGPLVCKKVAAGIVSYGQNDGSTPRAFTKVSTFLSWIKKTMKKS
# Bax-mediated apoptosis = details: cited from earlier work
# [7] = target: Bax (Bcl-2-associated X protein) (Homo sapiens, UniProt Q07812); details: cited from earlier work
# Sequence of Bax (Bcl-2-associated X protein) (Q07812 whole entry): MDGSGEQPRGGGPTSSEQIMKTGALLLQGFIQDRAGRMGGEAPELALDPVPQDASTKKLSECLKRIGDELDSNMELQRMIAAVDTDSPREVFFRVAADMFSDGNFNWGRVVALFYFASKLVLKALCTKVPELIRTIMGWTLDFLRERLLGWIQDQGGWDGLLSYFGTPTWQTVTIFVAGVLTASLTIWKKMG
# Sequence of anthrax lethal factor (P15917 34-809 limits assumed): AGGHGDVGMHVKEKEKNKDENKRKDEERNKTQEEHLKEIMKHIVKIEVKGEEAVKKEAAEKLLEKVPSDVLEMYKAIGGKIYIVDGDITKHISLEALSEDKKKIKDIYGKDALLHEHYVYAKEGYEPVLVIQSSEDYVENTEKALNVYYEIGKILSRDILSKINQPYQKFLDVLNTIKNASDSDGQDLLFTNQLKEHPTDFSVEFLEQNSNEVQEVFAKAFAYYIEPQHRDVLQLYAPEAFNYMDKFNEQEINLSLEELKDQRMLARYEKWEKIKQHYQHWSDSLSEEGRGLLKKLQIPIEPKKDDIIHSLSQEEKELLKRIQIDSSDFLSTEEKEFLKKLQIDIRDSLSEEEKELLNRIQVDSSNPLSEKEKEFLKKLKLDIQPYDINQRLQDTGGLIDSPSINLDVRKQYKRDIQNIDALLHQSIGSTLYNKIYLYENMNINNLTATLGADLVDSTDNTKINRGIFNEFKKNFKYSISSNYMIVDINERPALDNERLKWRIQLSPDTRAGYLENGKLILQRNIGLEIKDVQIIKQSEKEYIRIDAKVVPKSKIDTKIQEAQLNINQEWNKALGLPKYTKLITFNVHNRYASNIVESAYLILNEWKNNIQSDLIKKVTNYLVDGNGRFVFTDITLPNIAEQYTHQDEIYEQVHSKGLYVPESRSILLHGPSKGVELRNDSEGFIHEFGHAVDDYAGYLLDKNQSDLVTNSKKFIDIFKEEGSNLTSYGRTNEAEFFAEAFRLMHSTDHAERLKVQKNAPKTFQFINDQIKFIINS
compound,measurement,setting,value
FC(F)(F)c1cccc(-c2csc(C3COc4ccccc4O3)n2)c1 (stereo not drawn) [Caspase Inhibitor X],effect on activity,anthrax lethal factor,"assisted cleavage of BID, a proapoptotic protein. Weakly affects"
O=C(C=Cc1ccc(C=CC(=O)Nc2ccc(C3=NCCN3)cc2)cc1)Nc1ccc(C2=NCCN2)cc1 [GW 4869],protection against cell death,MCF7 breast cancer cells,specific PLC. Reported to offer complete protection against TNF-α
"COc1cc(-n2c(=S)[nH]c3ccccc3c2=O)c(Cl)cc1Cl [Mdivi-1, 3-(2,4-Dichloro-5-methoxyphenyl)-2,3-dihydro-2-thioxo-4(1H)-quinazolinone]",IC50,mitochondrial division,~10000 nM
"O=[N+]([O-])c1ccc(-c2cn3c4c(sc3n2)CCCC4)cc1 [Pifithrin-α, p-Nitro, Cyclic]",potency relative to Pifithrin-α,[1],A cell-permeable p53 inhibitor that exhibits 10-fold higher potency
same,EC50,[1],30 nM
same,half-life longer than Pifithrin-α,[2],50%
"N=c1sc2c(n1CC(=O)c1ccc([N+](=O)[O-])cc1)CCCC2 [Pifithrin-α, p-Nitro]",EC50,[1],300 nM
same,potency relative to Pifithrin-α,[3],100-fold more potent than Pifithrin-α when adminstered in rats in
"CC(C)C(NC(=O)c1ccc2ccccc2n1)C(=O)NC(CC(=O)O)C(=O)COc1c(F)cccc1F (stereo not drawn) [Q-VD-OPh, Quinoline-Val-Asp-CH2-OPH]",genomic DNA release/fragmentation,whole blood samples [4]; 1 μM caspase inhibitor with 21.4 mM glucose,significantly reduced the genomic DNA release/fragmentation
same,genomic DNA release/fragmentation,"whole blood samples [4]; 4 μM caspase inhibitor with 21.4 mM glucose, compared with 1 μM",improved
same,ladder-like pattern of DNA bands (release/fragmentation of genomic DNA),whole blood samples [4],significantly reduced ladder-like patterns
same,increase of genomic DNA in the plasma (18S DNA duplex assay),whole blood samples [5]; 1 μM in combination with 21 mM glucose,only a minor increase of genomic DNA
same,increase of genomic DNA in the plasma (18S DNA duplex assay),whole blood samples [5]; 4 μM in combination with 21 mM glucose,≤ 4 fold
same,x-fold increase of ribosomal 18S DNA in plasma,whole blood samples [5],reduced increase of DNA
COC(=O)C[C@H](NC(=O)[C@H](C)NC(=O)[C@@H](NC(=O)OCc1ccccc1)C(C)C)C(=O)CF [Z-Val-Ala-Asp(OMe)-FMK] (Cbz-Val-Ala-Asp(OMe)-CH2F),ladder-like pattern of DNA bands (release/fragmentation of genomic DNA),whole blood samples [4],reduced ladder-like pattern
same,x-fold increase of ribosomal 18S DNA in plasma,whole blood samples [5],more prominent on day 7
"O[C@H]1[C@H](O)[C@@H](O)[C@H](O)[C@@H](O)[C@H]1O [inositol, Cyclohexane-1,2,3,4,5,6-geksol]",relative change of ccfDNA level (day X copies/day 0 copies),"whole blood samples [5]; concentrations of for example 0.05 M, room temperature up to six days",suitable alternatives
"OC[C@@H](O)[C@@H](O[C@H]1O[C@H](CO)[C@@H](O)[C@H](O)[C@H]1O)[C@H](O)[C@@H](O)CO [maltitol, 4-O-α-D-Glucopyranosyl-D-glucitol]",relative change of ccfDNA level (day X copies/day 0 copies),"whole blood samples [5]; concentrations ≤0.01M, room temperature up to six days",suitable alternatives
"OCC(O)C(O)C(O)C(O)CO (stereo not drawn) [mannitol, Hexane-1,2,3,4,5,6-hexol]",relative change of ccfDNA level (day X copies/day 0 copies),"whole blood samples [5]; 0.1, 0.05, 0.01 M tested, room temperature",stabilization effects over 3 days
Ac-IETD-aldehyde,Ki,caspase-8,1 nM
Ac-Tyr-Val-Ala-Asp-CHO [Caspase-1 Inhibitor I],Ki,[6],0.2 nM
Cbz-Ala-Ala-Asp-CH2Cl [Granzyme B Inhibitor I],IC50,fragmentin 2,300 nM
"H-Val-Pro-Met-Leu-Lys-OH (H-VPMLK-OH) [Bax-Inhibiting Peptide, V5]",effective concentration for Bax-mediated apoptosis,Bax-mediated apoptosis,mediated apoptosis (~50-200 μM). Also effectively blocks caspase-
"Humanin, Human, Synthetic: A 24-residue anti-apoptotic peptide",Kd,[7],~2 nM
